Results as given in patent US20250228916A1, “A METHOD OF TREATING OR PREVENTING SEPSIS” (priority 2016, published 2025).

What was measured:
[1] = tested on: αVβ3 on human endothelial cells; assay: Binding assay: L. lactis expressing ClfA binding to sheared human endothelial cells; assay type: cell-based; details: pretreatment of the human endothelial cells with cilengitide; FIG. 6B
Procedure: (§1) Sheared HAoECs were seeded into wells of a 96 well tissue culture plate at a density of 2.5×10^4 cells per well in a volume of 100 μl. Experiments were carried out either in the presence or absence of TNFα at 10 ng/ml. The HAoECs were incubated at 37° C. 5% CO2 for 4 hours to facilitate attachment and cell-cell contact on the plate. Following the 4 hr incubation the media was removed and 100 μl of human platelet poor plasma (PPP), 4 mg/ml fibrinogen or 1 mg/ml IgG was added to each well and incubated for 1 hr at 37° C. 5% CO2. The wells were washed with PBS and the wells were blocked with 100 μl of 1% […] for 1 hr at 37° C. Finally the wells were washed with 100 μl of TBS and 100 μl of SYBR green II stained bacteria was added per well at a MOI of 400. The cells were incubated for a further 1 hr at 37° C. 5% CO2 and then read on a fluorescent plate reader (1420 Victor V3, Perkin Elmer, Dublin, Ireland) at 485/535 nm. The bacteria were then removed gently by pipette and the plate washed with 100 μl TBS/well. The plate was then read again at 485/535 nm. Adhered bacteria were calculated as a percent remaining from the initial reading multiplied by the number of bacteria added.

[2] = target: purified receptor a Vb3 (Homo sapiens, UniProt P05106+P06756); assay: L. lactis ClfA binding to purified receptor αVβ3; details: pretreating the purified receptor with cilengitide; FIG. 6C
purified receptor a Vb3, sequence (P06756 31-889 limits assumed): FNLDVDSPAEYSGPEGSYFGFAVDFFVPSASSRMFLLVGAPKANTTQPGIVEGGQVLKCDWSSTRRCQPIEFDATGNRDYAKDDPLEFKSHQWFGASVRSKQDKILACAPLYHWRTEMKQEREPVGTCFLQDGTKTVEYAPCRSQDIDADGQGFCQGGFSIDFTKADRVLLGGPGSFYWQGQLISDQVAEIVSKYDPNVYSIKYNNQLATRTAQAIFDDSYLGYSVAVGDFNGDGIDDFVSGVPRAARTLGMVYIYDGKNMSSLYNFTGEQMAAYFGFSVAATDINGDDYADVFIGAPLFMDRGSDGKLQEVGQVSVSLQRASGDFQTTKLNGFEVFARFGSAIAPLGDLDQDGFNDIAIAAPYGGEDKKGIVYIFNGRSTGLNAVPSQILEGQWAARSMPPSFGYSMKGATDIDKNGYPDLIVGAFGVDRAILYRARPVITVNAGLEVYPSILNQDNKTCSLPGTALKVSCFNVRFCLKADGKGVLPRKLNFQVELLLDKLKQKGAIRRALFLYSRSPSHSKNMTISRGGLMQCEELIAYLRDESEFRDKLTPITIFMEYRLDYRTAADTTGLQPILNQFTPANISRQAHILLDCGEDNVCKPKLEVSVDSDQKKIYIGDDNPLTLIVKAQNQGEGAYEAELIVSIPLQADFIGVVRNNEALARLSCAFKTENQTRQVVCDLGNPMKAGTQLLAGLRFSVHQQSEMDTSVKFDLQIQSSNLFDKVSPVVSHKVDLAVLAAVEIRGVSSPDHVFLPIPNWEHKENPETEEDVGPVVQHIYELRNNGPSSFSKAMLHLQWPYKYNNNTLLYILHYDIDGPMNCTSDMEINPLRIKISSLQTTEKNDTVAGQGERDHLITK
purified receptor a Vb3, sequence (P06756 891-1048 partner limits assumed): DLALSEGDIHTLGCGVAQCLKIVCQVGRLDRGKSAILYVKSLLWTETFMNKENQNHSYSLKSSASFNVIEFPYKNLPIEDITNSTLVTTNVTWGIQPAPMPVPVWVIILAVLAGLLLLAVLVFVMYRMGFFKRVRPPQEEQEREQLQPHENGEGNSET
purified receptor a Vb3, sequence (P05106 27-788): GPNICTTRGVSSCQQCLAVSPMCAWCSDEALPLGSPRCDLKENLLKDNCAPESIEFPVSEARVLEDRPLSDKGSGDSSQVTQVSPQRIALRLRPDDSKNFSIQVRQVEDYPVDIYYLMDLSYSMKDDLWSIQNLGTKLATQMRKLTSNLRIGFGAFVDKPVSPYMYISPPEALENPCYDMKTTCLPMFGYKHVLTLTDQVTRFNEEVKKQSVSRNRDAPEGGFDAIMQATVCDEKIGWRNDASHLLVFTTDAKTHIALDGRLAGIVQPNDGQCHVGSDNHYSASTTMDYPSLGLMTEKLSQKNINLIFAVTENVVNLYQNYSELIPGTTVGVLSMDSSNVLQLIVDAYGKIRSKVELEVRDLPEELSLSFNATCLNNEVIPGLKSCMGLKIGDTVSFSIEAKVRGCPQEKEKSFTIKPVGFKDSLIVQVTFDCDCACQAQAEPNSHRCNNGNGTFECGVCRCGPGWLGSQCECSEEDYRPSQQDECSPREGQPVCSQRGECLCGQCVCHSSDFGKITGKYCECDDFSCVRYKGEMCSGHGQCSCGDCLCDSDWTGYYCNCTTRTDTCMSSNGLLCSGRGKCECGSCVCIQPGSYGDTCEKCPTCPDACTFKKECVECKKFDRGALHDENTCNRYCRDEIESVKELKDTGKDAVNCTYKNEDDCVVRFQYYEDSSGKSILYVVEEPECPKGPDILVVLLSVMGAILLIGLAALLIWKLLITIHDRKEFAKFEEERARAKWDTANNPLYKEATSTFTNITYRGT

[3] = tested on: S. aureus adhesion to murine endothelial cells; assay: In vivo venous mesenteric perfusion model of bacterial adhesion; details: cilengitide administered intravenously; FIG. 7C, 7E
[4] = tested on: human endothelial cells; assay: Proliferation assay, S. aureus infected human endothelial cells; assay type: cell-based; details: 0.05 μM cilengitide, 24 hrs; FIG. 8H
Procedure: Sheared HAoECs were seeded into a six well plate at 150,000 cells per well in 1.6 ml media containing 10 ng/ml of TNFα. The cells were incubated for 4 hrs at 37° C. in a 5% CO2. […] The media was removed and the well washed with antibiotic free media. To each well 1.6 ml of antibiotic free media was added containing S. aureus Newman or S. aureus ΔClfA for a MOI of 400. The cells were incubated at 37° C. in for 24 hrs. Following incubation the media was removed from the cells and they were washed 4 times with warm PBS. The cells were detached from the 6 well plate by trypsinization counted on a haemocytometer.

[5] = tested on: human endothelial cells; assay: Apoptosis assay (Annexin V), S. aureus infected human endothelial cells; assay type: cell-based; details: cilengitide at 0.05 µM for 1 hr; FIG. 9B
Procedure: (§2) Sheared HAoECs in a 6 well plate were exposed to 1 ng of TNFα per 25,000 endothelial cells and were incubated for 4 hrs at 37° C. The TNFα containing media was removed and 1 ml of 4 mg/ml Fg in media at 37° C. for 1 hr. Media was removed and replaced with 1 ml of antibiotic free media containing S. aureus Newman WT or Newman ΔClfA to a MOI of 400 in a final volume per well of 2 ml. The cells were incubated for 24 hrs at 37° C. Following incubation the media was removed and the wells washed 3 times with warm PBS. Cells were detached by trypsinization and pelleted. The cell pellet was washed in ice cold (4° C.) PBS before being stained with a TACS™ Annexin V Apoptosis Kit. The cells were analysed on a flow cytometer (BD FACSCanto™ II Flow Cytometer). The experiment was repeated to test αVβ3 blocking by cilengitide at 0.05 µM for 1 hr between the TNFα exposure and the addition of 4 mg/ml fibrinogen for 1 hr. This experiment was repeated using E. coli and E. coli AompA instead of S. aureus Newman WT or Newman ΔClfA.

[6] = tested on: human endothelial cells; assay: Transwell permeability assay, S. aureus infected human endothelial cells; assay type: cell-based; details: cilengitide at 0.05 μM for 1 hr; FIG. 10
Procedure: (§3) Endothelial barrier permeability was assessed using a transwell apparatus with the slight modifications. Sheared HAoECs were trypsinized and seeded into hanging inserts, were placed in a 6 well plate. To the lower (abluminal) chamber of the plate 4 ml of cell media was added and 2 ml of media containing 200,000 cells/ml was added to the top (luminal) chamber. The wells plates were incubated at 37° C. in a 5% CO2 and humidified atmosphere overnight to form a confluent monolayer. Media in the abluminal chamber was changed to antibiotic free media while simultaneously the media in the luminal chamber was removed and washed with antibiotic free media. Cells were infected with S. aureus Newman WT and S. aureus ΔClfA in 2 ml of antibiotic free media to infect the cells at a MOI of 400 for 3 hrs at 37° C. FITC dextran (40 kDa) was added to the top chamber for a final concentration of 250 μg/ml in 2 ml. Media samples from the abluminal chamber were taken 24 hrs after infection measured on a plate reader at fluorescence Ex/Em 485/535 nm. The experiment was repeated to test αVβ3 blocking by cilengitide at 0.05 μM for 1 hr between the TNFα exposure and the addition of 4 mg/ml fibrinogen in place of plasma for 1 hr. This experiment was repeated using E. coli and E. coli AompA instead of S. aureus Newman WT or Newman ΔClfA.

[7] = tested on: human endothelial cells; assay: MTT cytotoxicity assay; assay type: cell-based; details: 0.05 μM cilengitide, FIG. 12
Procedure: Cell metabolic activity was measured using a MTT ((3-(4,5-dimethylthiazol-2-yl)-2,5-diphenyltetrazolium bromide) assay kit. Sheared HAoECs were seeded into a clear 96 well microtitre plate at a density of 2.5×10^4 cells/well in 100 μl in media containing 10 ng/ml TNFα. The cells were incubated for 4 hrs at 37° C. Media was removed from the wells after 4 hrs and replaced with 100 μl of fresh cell media, cell media containing a vehicle or cell media containing 0.05 μM cilengitide. The plate was incubated for a further one hour before the media was changed for 100 μl of fresh cell media with 10 μl of 12 mM MTT stock and the plate 10 incubated at 37° C. for 4 hrs. All but 25 μl of liquid was removed from each well and 10 μl of DMSO was added per well. The plate was incubated for 10 minutes at 37° C. before being read on a plate reader for absorbance at 570 nm.

[8] = tested on: αVβ3 integrin on endothelial cells; assay: E. coli binding to endothelial cells, static assay; assay type: cell-based, human; details: cilengitide 0.05 μM; FIG. 14A
Procedure: as §1

[9] = tested on: αVβ3 integrin on sheared endothelial cells; assay: E. coli binding to sheared endothelial cells under perfusion; assay type: cell-based, human; details: cilengitide 0.05 μM; E. coli perfused at 10 dyns for 5 minutes; FIG. 14B
[10] = tested on: endothelial cells; assay: Transwell permeability assay, E. coli infected endothelial cells; assay type: cell-based, human; details: preincubating the endothelial cells with cilengitide; FIG. 16
Procedure: as §3

[11] = tested on: endothelial cells; assay: VE-cadherin immunostaining of tight junction formation after E. coli infection; assay type: cell-based, human; details: pre-treating the endothelial cells with cilengitide; FIG. 17E
[12] = tested on: endothelial cells; assay: Apoptosis assay (Annexin V flow cytometry), E. coli infected endothelial cells
Procedure: as §2

[13] = tested on: vascular endothelial αVβ3 integrin receptor; assay: Adhesion of gram positive and gram negative bacteria to vascular endothelial cells; assay type: cell-based, human; details: blocking the αVβ3 receptor
Procedure: as §1

[14] = target: vascular endothelial αVβ3 integrin on sheared human aortic endothelial cells (human)

Row | Compound | binding of L. lactis expressing ClfA to human endothelial cells [1] | L. lactis ClfA binding to purified receptor αVβ3 [2] | S. aureus binding to murine endothelial cells [3] | human endothelial cell proliferation after S. aureus infection [4] | S. aureus induced apoptosis of human endothelial cells [5] | permeability of the human endothelial barrier following S. aureus infection [6] | toxicity in human endothelial cells [7] | E. coli binding to endothelial cells, static assay [8] | E. coli binding to sheared endothelial cells, perfused [9] | E. coli induced permeability of endothelial cells [10] | VE-cadherin tight junction formation following E. coli infection [11] | viability of endothelial cells ([12]; cilengitide alone, no infection) | E. coli induced apoptosis of endothelial cells ([12]; preincubation of endothelial cells with cilengitide, Annexin V, FIG. 17F) | adhesion of both gram positive and gram negative bacteria to vascular endothelial cells [13] | endothelial cell permeability (% increase in permeability) [14]
1 | CC(C)[C@H]1C(=O)N[C@@H](CCCN=C(N)N)C(=O)NCC(=O)N[C@@H](CC(=O)O)C(=O)N[C@H](Cc2ccccc2)C(=O)N1C [cilengitide, cyclo(-RGDf(NMe)V-)] | significantly reduced | significantly inhibited | failed to significantly bind | significantly recovered | significantly reduced | significantly reduced | does not cause toxicity | significantly inhibited | significantly inhibited | significantly reduces permeability | recovery of tight junction formation | failed to affect | significant reduction | dose-dependent reduction in adhesion | –
2 | Escherichia coli outer membrane protein A | – | – | – | – | – | – | – | – | – | – | – | – | – | – | 30
